Test results published in patent US20140171357A1, “VANCOMYCIN DERIVATIVES” (Seachald Pharmaceuticals, Inc., priority 2011, published 2014).
In brackets after ≈: the same amount, converted by molar mass.

Legend:
[1] = tested on: vancomycin-susceptible E. faecalis (23); assay: MIC broth microdilution, vancomycin-susceptible E. faecalis; conditions: E. faecalis, vancomycin-susceptible (23)
[2] = tested on: Staphylococcus aureus (65 strains); assay: MIC broth microdilution, S. aureus all isolates; conditions: S. aureus (65), all resistance subsets
[3] = tested on: vancomycin-resistant S. aureus (VRSA, 6); assay: MIC broth microdilution, VRSA
[4] = tested on: methicillin-resistant S. aureus (MRSA, 22); assay: MIC broth microdilution, MRSA; conditions: MRSA (22)
[5] = tested on: β-hemolytic streptococci (23); assay: MIC broth microdilution, β-hemolytic streptococci; conditions: for MIC 50% / MIC 90%: β-hemolytic streptococci (23), MHB + lysed horse blood
S. aureus ATCC 25923 = assay: Neutropenic murine thigh infection model; conditions: for AUCc-t (AUC difference between control and treated animals): 24 h time kill
[6] = tested on: vancomycin-intermediate S. aureus (VISA, 5); assay: MIC broth microdilution, VISA
S. pneumoniae (22) = assay: MIC broth microdilution, S. pneumoniae; conditions: S. pneumoniae (22); MHB + lysed horse blood
VanC enterococci (22) = assay: MIC broth microdilution, vanC-carrying enterococci; conditions: VanC enterococci (22)
[7] = tested on: VanA vancomycin-resistant E. faecium (10); assay: MIC broth microdilution, VanA E. faecium; conditions: E. faecium, VanA (10)
[8] = tested on: VanB vancomycin-resistant E. faecalis (12); assay: MIC broth microdilution, VanB E. faecalis; conditions: E. faecalis, VanB (12)
[9] = tested on: vancomycin-susceptible E. faecium (21); assay: MIC broth microdilution, vancomycin-susceptible E. faecium; conditions: E. faecium, vancomycin-susceptible (21)
[10] = tested on: VanA vancomycin-resistant E. faecalis (11); assay: MIC broth microdilution, VanA E. faecalis; conditions: for MIC 50% / MIC 90%: E. faecalis, VanA (11)
[11] = tested on: methicillin-susceptible S. aureus (MSSA, 22); assay: MIC broth microdilution, MSSA; conditions: MSSA (22)
[12] = tested on: heterogeneous VISA (hVISA, 10); assay: MIC broth microdilution, hVISA
[13] = tested on: Staphylococcus epidermidis (43 strains); assay: MIC broth microdilution, S. epidermidis; conditions: S. epidermidis (43)
[14] = tested on: VanB vancomycin-resistant E. faecium (10); assay: MIC broth microdilution, VanB E. faecium; conditions: E. faecium, VanB (10)
[15] = 1 mg/kg single intraperitoneal dose
[16] = 4 mg/kg single intraperitoneal dose
[17] = 16 mg/kg single intraperitoneal dose

Row | Compound | MIC 50% [1] | MIC 90% [1] | MIC 50% [2] | MIC 90% [2] | MIC 50% [3] | MIC 50% [4] | MIC 90% [4] | MIC 50% [5] | MIC 90% [5] | Max Kill (maximum decrease from initial infection level) (S. aureus ATCC 25923; [15]) | AUCc-t (AUC difference between control and treated animals) (S. aureus ATCC 25923; [15]) | Max Kill (maximum decrease from initial infection level) (S. aureus ATCC 25923; [16]) | AUCc-t (AUC difference between control and treated animals) (S. aureus ATCC 25923; [16]) | Max Kill (maximum decrease from initial infection level) (S. aureus ATCC 25923; [17]) | AUCc-t (AUC difference between control and treated animals) (S. aureus ATCC 25923; [17]) | MIC 50% [6] | MIC 50% (S. pneumoniae (22)) | MIC 90% (S. pneumoniae (22)) | MIC 50% (VanC enterococci (22)) | MIC 90% (VanC enterococci (22)) | other results
1 | CNC(CC(C)C)C(=O)NC1C(=O)NC(CC(N)=O)C(=O)NC2C(=O)NC3C(=O)NC(C(=O)NC(C(=O)O)c4cc(O)c(CNCCOCCOCCN)c(O)c4-c4cc3ccc4O)C(O)c3ccc(c(Cl)c3)Oc3cc2cc(c3OC2OC(CO)C(O)C(O)C2OC2CC(C)(NCc3ccc(OCc4ccc(Cl)c(Cl)c4)cc3)C(O)C(C)O2)Oc2ccc(cc2Cl)C1O (stereo not shown) [Compound 28] | 0.06 µg/mL (≈ 0.032 µM) | 0.12 µg/mL (≈ 0.064 µM) | 0.06 µg/mL (≈ 0.032 µM) | 0.12 µg/mL (≈ 0.064 µM) | 2 µg/mL (≈ 1.07 µM) | 0.06 µg/mL (≈ 0.032 µM) | 0.06 µg/mL (≈ 0.032 µM) | 0.03 µg/mL | 0.06 µg/mL | 0.61 Log10 CFU/thigh | 19.1 (Log10 CFU/thigh)/hr | 0.75 Log10 CFU/thigh | 17.3 (Log10 CFU/thigh)/hr | −0.02 Log10 CFU/thigh | 38.2 (Log10 CFU/thigh)/hr | 0.12 µg/mL (≈ 0.064 µM) | 0.03 µg/mL | 0.06 µg/mL | 0.06 µg/mL (≈ 0.032 µM) | 0.25 µg/mL (≈ 0.133 µM) | fold more potent than teicoplanin and daptomycin ([5]; β-hemolytic streptococci): two- to four; fold more potent than vancomycin ([5]; β-hemolytic streptococci): four- to eight; MIC 50% [7]: 0.5 µg/mL (≈ 0.267 µM); MIC 90% [7]: 1 µg/mL (≈ 0.533 µM); MIC 50% [8]: 0.12 µg/mL (≈ 0.064 µM); MIC 90% [8]: 0.12 µg/mL (≈ 0.064 µM); MIC 50% [9]: 0.03 µg/mL (≈ 0.016 µM); MIC 90% [9]: 0.06 µg/mL (≈ 0.032 µM); MIC 50% [10]: 2 µg/mL (≈ 1.07 µM); MIC 90% [10]: 4 µg/mL (≈ 2.13 µM); MIC 50% [11]: 0.06 µg/mL (≈ 0.032 µM); MIC 90% [11]: 0.06 µg/mL (≈ 0.032 µM); MIC 50% [12]: 0.06 µg/mL (≈ 0.032 µM); MIC 90% [12]: 0.06 µg/mL (≈ 0.032 µM); MIC 50% [13]: 0.03 µg/mL (≈ 0.016 µM); MIC 90% [13]: 0.03 µg/mL (≈ 0.016 µM); MIC 50% [14]: 0.03 µg/mL (≈ 0.016 µM); MIC 90% [14]: 0.06 µg/mL (≈ 0.032 µM)
2 | CNC(CC(C)C)C(=O)NC1C(=O)NC(CC(N)=O)C(=O)NC2C(=O)NC3C(=O)NC(C(=O)NC(C(=O)O)c4cc(O)c(CNCCOCCOCCN)c(O)c4-c4cc3ccc4O)C(O)c3ccc(c(Cl)c3)Oc3cc2cc(c3OC2OC(CO)C(O)C(O)C2OC2CC(C)(NCc3ccc(-c4ccc(Cl)cc4)cc3)C(O)C(C)O2)Oc2ccc(cc2Cl)C1O (stereo not shown) [Compound 11] | 0.25 µg/mL (≈ 0.138 µM) | 0.25 µg/mL (≈ 0.138 µM) | 0.12 µg/mL (≈ 0.0663 µM) | 0.5 µg/mL (≈ 0.276 µM) | 4 µg/mL (≈ 2.21 µM) | 0.12 µg/mL (≈ 0.0663 µM) | 0.12 µg/mL (≈ 0.0663 µM) | 0.06 µg/mL | 0.12 µg/mL | 0.59 Log10 CFU/thigh | 12.9 (Log10 CFU/thigh)/hr | 0.46 Log10 CFU/thigh | 10.8 (Log10 CFU/thigh)/hr | −0.39 Log10 CFU/thigh | 34.7 (Log10 CFU/thigh)/hr | 0.25 µg/mL (≈ 0.138 µM) | 0.06 µg/mL | 0.06 µg/mL | 0.25 µg/mL (≈ 0.138 µM) | 0.5 µg/mL (≈ 0.276 µM) | MIC 50% [7]: 2 µg/mL (≈ 1.1 µM); MIC 90% [7]: 4 µg/mL (≈ 2.21 µM); MIC 50% [8]: 0.25 µg/mL (≈ 0.138 µM); MIC 90% [8]: 0.25 µg/mL (≈ 0.138 µM); MIC 50% [9]: 0.06 µg/mL (≈ 0.0331 µM); MIC 90% [9]: 0.12 µg/mL (≈ 0.0663 µM); MIC 50% [10]: 4 µg/mL (≈ 2.21 µM); MIC 90% [10]: 8 µg/mL (≈ 4.42 µM); MIC 50% [11]: 0.12 µg/mL (≈ 0.0663 µM); MIC 90% [11]: 0.12 µg/mL (≈ 0.0663 µM); MIC 50% [12]: 0.12 µg/mL (≈ 0.0663 µM); MIC 90% [12]: 0.12 µg/mL (≈ 0.0663 µM); MIC 50% [13]: 0.06 µg/mL (≈ 0.0331 µM); MIC 90% [13]: 0.06 µg/mL (≈ 0.0331 µM); MIC 50% [14]: 0.06 µg/mL (≈ 0.0331 µM); MIC 90% [14]: 0.12 µg/mL (≈ 0.0663 µM)
3 | CNC(CC(C)C)C(=O)NC1C(=O)NC(CC(N)=O)C(=O)NC2C(=O)NC3C(=O)NC(C(=O)NC(C(=O)O)c4cc(O)c(CNCCOCCOCCOCCN(C)C)c(O)c4-c4cc3ccc4O)C(O)c3ccc(c(Cl)c3)Oc3cc2cc(c3OC2OC(CO)C(O)C(O)C2OC2CC(C)(NCc3ccc(-c4ccc(Cl)cc4)cc3)C(O)C(C)O2)Oc2ccc(cc2Cl)C1O (stereo not shown) [Compound 14] | 0.25 µg/mL (≈ 0.133 µM) | 0.25 µg/mL (≈ 0.133 µM) | 0.12 µg/mL (≈ 0.0638 µM) | 0.5 µg/mL (≈ 0.266 µM) | 8 µg/mL (≈ 4.25 µM) | 0.12 µg/mL (≈ 0.0638 µM) | 0.12 µg/mL (≈ 0.0638 µM) | 0.06 µg/mL | 0.06 µg/mL | 0.83 Log10 CFU/thigh | 11.4 (Log10 CFU/thigh)/hr | 0.19 Log10 CFU/thigh | 19.4 (Log10 CFU/thigh)/hr | 0.03 Log10 CFU/thigh | 36.1 (Log10 CFU/thigh)/hr | 0.5 µg/mL (≈ 0.266 µM) | 0.06 µg/mL | 0.12 µg/mL | 0.25 µg/mL (≈ 0.133 µM) | 0.5 µg/mL (≈ 0.266 µM) | MIC 50% [7]: 2 µg/mL (≈ 1.06 µM); MIC 90% [7]: 4 µg/mL (≈ 2.13 µM); MIC 50% [8]: 0.25 µg/mL (≈ 0.133 µM); MIC 90% [8]: 0.25 µg/mL (≈ 0.133 µM); MIC 50% [9]: 0.12 µg/mL (≈ 0.0638 µM); MIC 90% [9]: 0.12 µg/mL (≈ 0.0638 µM); MIC 50% [10]: 8 µg/mL (≈ 4.25 µM); MIC 90% [10]: 16 µg/mL (≈ 8.5 µM); MIC 50% [11]: 0.12 µg/mL (≈ 0.0638 µM); MIC 90% [11]: 0.25 µg/mL (≈ 0.133 µM); MIC 50% [12]: 0.12 µg/mL (≈ 0.0638 µM); MIC 90% [12]: 0.12 µg/mL (≈ 0.0638 µM); MIC 50% [13]: 0.12 µg/mL (≈ 0.0638 µM); MIC 90% [13]: 0.12 µg/mL (≈ 0.0638 µM); MIC 50% [14]: 0.12 µg/mL (≈ 0.0638 µM); MIC 90% [14]: 0.12 µg/mL (≈ 0.0638 µM)
4 | CNC(CC(C)C)C(=O)NC1C(=O)NC(CC(N)=O)C(=O)NC2C(=O)NC3C(=O)NC(C(=O)NC(C(=O)NCCOCCOCCN)c4cc(O)cc(O)c4-c4cc3ccc4O)C(O)c3ccc(c(Cl)c3)Oc3cc2cc(c3OC2OC(CO)C(O)C(O)C2OC2CC(C)(NCc3ccc(OCc4ccc(Cl)c(Cl)c4)cc3)C(O)C(C)O2)Oc2ccc(cc2Cl)C1O (stereo not shown) [Compound 27] | 0.12 µg/mL (≈ 0.0651 µM) | 0.12 µg/mL (≈ 0.0651 µM) | 0.06 µg/mL (≈ 0.0325 µM) | 0.25 µg/mL (≈ 0.136 µM) | 2 µg/mL (≈ 1.08 µM) | 0.06 µg/mL (≈ 0.0325 µM) | 0.06 µg/mL (≈ 0.0325 µM) | 0.06 µg/mL | 0.12 µg/mL | 0.45 Log10 CFU/thigh | 19.8 (Log10 CFU/thigh)/hr | −0.008 Log10 CFU/thigh | 18.8 (Log10 CFU/thigh)/hr | −0.35 Log10 CFU/thigh | 36.9 (Log10 CFU/thigh)/hr | 0.12 µg/mL (≈ 0.0651 µM) | 0.03 µg/mL | 0.06 µg/mL | 0.06 µg/mL (≈ 0.0325 µM) | 0.25 µg/mL (≈ 0.136 µM) | MIC 50% [7]: 0.5 µg/mL (≈ 0.271 µM); MIC 90% [7]: 1 µg/mL (≈ 0.542 µM); MIC 50% [8]: 0.12 µg/mL (≈ 0.0651 µM); MIC 90% [8]: 0.12 µg/mL (≈ 0.0651 µM); MIC 50% [9]: 0.03 µg/mL (≈ 0.0163 µM); MIC 90% [9]: 0.06 µg/mL (≈ 0.0325 µM); MIC 50% [10]: 2 µg/mL (≈ 1.08 µM); MIC 90% [10]: 2 µg/mL (≈ 1.08 µM); fold higher MIC50/MIC90 against VanA-type E. faecalis compared with wildtype (susceptible) strains ([10]; VanA vs wildtype E. faecalis): 16 fold; concentration inhibiting all strains ([10]; VanA-type E. faecalis): ≤ 2 µg/mL; MIC 50% [11]: 0.06 µg/mL (≈ 0.0325 µM); MIC 90% [11]: 0.06 µg/mL (≈ 0.0325 µM); MIC 50% [12]: 0.06 µg/mL (≈ 0.0325 µM); MIC 90% [12]: 0.06 µg/mL (≈ 0.0325 µM); MIC 50% [13]: 0.03 µg/mL (≈ 0.0163 µM); MIC 90% [13]: 0.03 µg/mL (≈ 0.0163 µM); MIC 50% [14]: 0.03 µg/mL (≈ 0.0163 µM); MIC 90% [14]: 0.03 µg/mL (≈ 0.0163 µM)
